For series [1] the following is noted: reported by Chilcote and Sinha, ARVO 2012; cited from earlier work.
The conditions of series [2]: literature / authorised label; cited from earlier work.
The nature of series [3]: Phase 1 trial: single-dose 3-way crossover pharmacokinetic study, ODT vs film-coated tablets. The class given is in vivo, human. The conditions noted are these: single doses of 500 mg or 600 mg in ODT or FCT, healthy adult participants. Here is the method:
This study was an open label, randomized, single-dose, 3-way crossover pharmacokinetic study.
Thirty-six (36) healthy, adult, male and female subjects were enrolled.
The film coated tablets were those used in the phase 2 study described herein (NCT04208412).
There was a washout period of at least 4 days between the dose in Period 1 and Period 2 and the dose in Period 2 and Period 3.
An analysis of variance (ANOVA) was performed on the natural log (ln) transformed AUC0-t, AUC0-inf, AUC% extrap and Cmax, using the appropriate statistical procedure.

The conditions of series [4]: swallowable tablet, NCT04208412; cited from earlier work.
Series [5] is described as follows: Plasma concentration after oral administration. The settings on record: following administration of a dosage amount of at least about 60 mg. The class given is in vivo.
Series [6] can be described thus: BCS classification (ICH M9). The conditions noted are these: ICH guideline M9. The series is classed as physicochemical. An excerpt: BCS class IV drugs are considered to be poorly soluble and poorly permeable meaning that they are likely to have poor oral bioavailability and/or the oral absorption may be so low that they cannot be given by the oral route. Due to their numerous unfavourable characteristics, BCS class IV drugs are particularly challenging to formulate as oral dosage forms and in particular as ODTs. Indeed, ODTs of BCS class IV drugs are not generally known in the art.

We go through five molecules from patent US20250281397A1, “FORMULATIONS OF A PLASMA KALLIKREIN INHIBITOR” (KALVISTA PHARMACEUTICALS LIMITED, priority 2022, published 2025).

As to `N=C(N)c1ccc(CNC(=O)c2cnn(Cc3ccccc3)c2)cc1` [ASP-440], the oral availability entry in series [1] is recorded as “poor oral availability”. For `N#Cc1cccc([C@@H](NCC2CC2)c2ccc(F)c(NC(=O)c3cc(C(F)(F)F)nn3-c3cccc(CN)c3)c2)c1` [Berotralstat, reference compound], the reported adverse reactions result in series [2] is on record as “higher doses were associated with more gastrointestinal adverse effects”. `COCc1nn(Cc2ccc(Cn3ccccc3=O)cc2)cc1C(=O)NCc1nccc(OC)c1F` [KVD900, N-[(3-fluoro-4-methoxypyridin-2-yl)methyl]-3-(methoxymethyl)-1-({4-[(2-oxopyridin-1-yl)methyl]phenyl}methyl) pyrazole-4-carboxamide]: in series [3], the safety and tolerability result was “well tolerated”. Moreover, the “phase 2 efficacy and safety endpoints” value in series [4] is “met all of its phase 2 efficacy and safety endpoints”. Also, in series [5], the “concentration of KVD900 in plasma” value was “at least 500 ng/ml”. Also, the BCS classification entry in series [6] is recorded as “BCS class IV”. Take Ecallantide: the reported adverse reactions entry in series [2] is listed as “risks of anaphylactic reactions”.

B1: lanadelumab: recombinant fully human IgG1 kappa light chain monoclonal antibody, plasma kallikrein inhibitor (antibody, chains of the INN, looked up, V domains shown)
VH: EVQLLESGGGLVQPGGSLRLSCAASGFTFSHYIMMWVRQAPGKGLEWVSGIYSSGGITVYADSVKGRFTISRDNSKNTLYLQMNSLRAEDTAVYYCAYRRIGVPRRDEFDIWGQGTMVTVSS
VL: DIQMTQSPSTLSASVGDRVTITCRASQSISSWLAWYQQKPGKAPKLLIYKASTLESGVPSRFSGSGSGTEFTLTISSLQPDDFATYYCQQYNTYWTFGQGTKVEIK
Take B1: the reported adverse reactions result in series [2] was “hypersensitivity, injection site pain, injection site erythema, and injection site bruising”.
